What all share (test): DTP human tumour cell line panel, 48 h
The subject of experiment [1] is CCRF-CEM.
Experiment [2] concerns LOX IMVI.
Experiment [3] concerns SK-MEL-2.
The test system of experiment [4] is UACC-257.
For experiment [5], the system named is COLO 205.
The test system of experiment [6] is OVCAR-3.
The test system of experiment [7] is HOP-92.
Experiment [8] deals with IGROV-1.
The subject of experiment [9] is HCT-15.
Experiment [10] relates to M14.
For experiment [11], the system named is HL-60.
For experiment [12], the system named is SK-OV-3.
Experiment [13] has as its system A498.
Experiment [14] has as its system OVCAR-5.
Experiment [15] relates to NCI-H23.
For experiment [16], the system named is SF-539.
Experiment [17] has as its system RPMI-8226.
Experiment [18] concerns Malme-3M.
The subject of experiment [19] is CAKI-1.
For experiment [20], the system named is TK-10.

SMILES strings stand for the structures.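 Compound exposure: 48 hours, 5 concentrations, 96-well plates. Here, GI50 denotes the concentration required for 50% inhibition of growth.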 The source made the active and inactive calls. No stated cut-off is given here; in the data, active = GI50 up to about 1.1 µM and inactive = higher.

What is called GI50 is the concentration at which growth is held to half of that of the control.

Regarding `CC(=O)Nc1ccc2[nH]c(C(=O)N3CC(CCl)c4c3cc(N)c3ccccc43)cc2c1` (stereo not given), the GI50 was < 0.01 µM (active) in [1]; < 0.0115 µM (active) in experiment [2]; < 0.0143 µM (active) in [3]; 0.0172 µM (active) in experiment [4]; 0.0139 µM (active) in experiment [5]; 0.0189 µM (active) in [6]. For the same molecule, the GI50 is < 0.0191 µM (active) in experiment [7]; 0.0143 µM (active) in [8]; 0.0267 µM in experiment [9]; 0.0167 µM (active) in experiment [10]; < 0.01 µM (active) in [11]; 0.0174 µM (active) in experiment [12]. For the same molecule, the GI50 in [13] is 0.0176 µM (active); in experiment [14] it was < 0.0179 µM (active); in experiment [15], 0.0102 µM (active); in experiment [16] it was 0.0129 µM (active); in [17], < 0.0171 µM (active); in experiment [18] it was < 0.01 µM (active). Further, the GI50 in [19] was 0.0129 µM (active); in experiment [20], < 0.0157 µM (active).

In the case of `CCCCCCCCCOCC(COP(=O)([O-])OCC[N+](C)(C)C)OC` (stereo not given), the GI50 in experiment [1], in [2], in experiment [3], in experiment [4], in experiment [5] and in experiment [6] was > 100 µM (inactive) throughout. Further, the GI50 in experiment [7] is > 100 µM (inactive); in experiment [8], > 65.6 µM (inactive); in experiment [9], above 100 µM; in experiment [11] it was > 100 µM (inactive); in [12], > 100 µM (inactive); in [13], > 100 µM (inactive). Besides, the GI50 in experiment [14], in [15], in experiment [16], in [17], in experiment [18] and in [19] was > 100 µM (inactive) throughout.

Turning to `CCOC(=O)NC(=O)c1cn(CCN(CCO)C(=O)NCCCCCCNC(=O)N(CCO)CCn2cc(C(=O)NC(=O)OCC)c(=O)[nH]c2=O)c(=O)[nH]c1=O`, the GI50 in [1], in [2], in experiment [3], in experiment [4], in experiment [5] and in [6] was > 100 µM (inactive) in each case. Further, the GI50 in [7] was > 100 µM (inactive); in [8] it was > 100 µM (inactive); in experiment [9], above 100 µM; in [11], > 100 µM (inactive); in experiment [13], > 100 µM (inactive); in [14], > 100 µM (inactive). Further, the GI50 in experiment [15], in experiment [16], in experiment [17], in experiment [18] and in experiment [19] was > 100 µM (inactive) in each case.

On to `O=C1N[C@@H]2C(=C[C@H](O)[C@@H](O)[C@H]2O)c2cc3c(c(O)c21)OCO3` [NARCICLASINE], for which the GI50 in experiment [1], in experiment [2], in experiment [3], in experiment [4], in experiment [6] and in [7] was 0.045 µM (active) in each case. In addition, the GI50 in experiment [8] was 0.045 µM (active); in experiment [9], 0.045 µM; in experiment [11], 0.0646 µM (active); in experiment [12], 0.045 µM (active); in experiment [13] it was 0.045 µM (active); in [14], 0.0632 µM (active). Besides, the GI50 in experiment [15], in [16], in experiment [17], in experiment [18] and in [19] was 0.045 µM (active) throughout.

With `O=C1CNC(=O)N1` [HYDANTOIN], the GI50 in [1] is 681 µM (inactive); in experiment [2] it was > 1120 µM (inactive); in [3] it was > 1120 µM (inactive); in experiment [4], > 1120 µM (inactive); in experiment [5], > 1120 µM (inactive); in [6] it was > 1120 µM (inactive). For the same molecule, the GI50 was > 11.2 µM (inactive) in experiment [7]; > 1120 µM (inactive) in experiment [8]; above 1120 µM in experiment [9]; > 1120 µM (inactive) in experiment [11]; > 1120 µM (inactive) in [12]; > 1120 µM (inactive) in experiment [13]. Further, the GI50 in experiment [14], in [15], in experiment [16], in [17], in experiment [18] and in [19] was > 1120 µM (inactive) throughout.

As to `Cc1c2cc[n+](C)cc2c(C)c2c1[nH]c1ccccc12`, the GI50 in experiment [1] was 2.33 µM (inactive); in experiment [2], 10.9 µM (inactive); in [3], 1.11 µM (active); in experiment [4], 5.97 µM (inactive); in experiment [5], 0.665 µM (active); in experiment [6] it was 2.99 µM (inactive). The GI50 in experiment [7] was 1.33 µM (inactive); in [8], 3.44 µM (inactive); in experiment [11], 9.62 µM (inactive); in experiment [12], 6.67 µM (inactive); in experiment [13] it was 4.26 µM (inactive); in experiment [14], 9.84 µM (inactive). Besides, the 50% growth inhibitory concentration (GI50) in experiment [15] was 0.714 µM (active); in experiment [16], 0.468 µM (active); in experiment [17], 8.49 µM (inactive); in [18] it was 0.855 µM (active); in [19], 4.39 µM (inactive).

`O=[PH](O)c1cccs1`: the GI50 is > 100 µM (inactive) in experiment [1]; > 100 µM (inactive) in experiment [2]; > 100 µM (inactive) in experiment [5]; 57 µM (inactive) in [7]; > 100 µM (inactive) in [8]; above 100 µM in [9]. The GI50 in [10], in experiment [11], in [12], in [13], in [15] and in experiment [16] was > 100 µM (inactive) each time. For the same molecule, the GI50 in experiment [17], in experiment [19] and in experiment [20] was > 100 µM (inactive) in each case.

With `C=CCn1c(=O)c(Br)nn(CCOCP(=O)(OCC)OCC)c1=O`, the GI50 in [1], in experiment [2], in experiment [3], in experiment [4], in experiment [5] and in [6] was > 100 µM (inactive) throughout. For the same molecule, the GI50 in [7] was > 100 µM (inactive); in [8] it was > 100 µM (inactive); in experiment [9], above 100 µM; in [10], > 100 µM (inactive); in [11] it was > 100 µM (inactive); in experiment [13], > 100 µM (inactive). Besides, the GI50 in experiment [14], in experiment [15], in experiment [16], in [17], in experiment [18] and in [19] was > 100 µM (inactive) each time.

The values above are taken from ChEMBL document CHEMBL1201862, “PubChem BioAssay data set” (2004).
